# From PubChem BioAssay (NCI)
#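 Growth conditions: 96-well plates. Treatment: test compound, 48 hours, 5 concentrations. Analysis: linear interpolation between bracketing concentrations; unreached endpoints set to highest concentration. TGI marks complete inhibition of growth.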
# What was measured:
# Assay in all cases: inhibition of tumour cell growth, NCI panel, 48 h
# 786-0 renal = test system: 786-0 renal
# A498 renal = test system: A498 renal
# ACHN renal = test system: ACHN renal
# CAKI-1 renal = test system: CAKI-1 renal
# COLO 205 colon = test system: COLO 205 colon
# HCT-15 colon = test system: HCT-15 colon
# HOP-92 NSCLC = test system: HOP-92 NSCLC
# HS 578T breast = test system: HS 578T breast
# M14 melanoma = test system: M14 melanoma
# MALME-3M melanoma = test system: MALME-3M melanoma
# NCI-H226 lung = test system: NCI-H226 lung
# NCI-H460 lung = test system: NCI-H460 lung
# NCI-H522 lung = test system: NCI-H522 lung
# OVCAR-8 ovarian = test system: OVCAR-8 ovarian
# RXF 393 renal = test system: RXF 393 renal
# SF-268 CNS = test system: SF-268 CNS
# SF-539 CNS = test system: SF-539 CNS
# SK-MEL-2 melanoma = test system: SK-MEL-2 melanoma
# U251 CNS = test system: U251 CNS
Structure (SMILES),TGI (786-0 renal),TGI (A498 renal),TGI (ACHN renal),TGI (CAKI-1 renal),TGI (COLO 205 colon),TGI (HCT-15 colon),TGI (HOP-92 NSCLC),TGI (HS 578T breast),TGI (M14 melanoma),TGI (MALME-3M melanoma),TGI (NCI-H226 lung),TGI (NCI-H460 lung),TGI (NCI-H522 lung),TGI (OVCAR-8 ovarian),TGI (RXF 393 renal),TGI (SF-268 CNS),TGI (SF-539 CNS),TGI (SK-MEL-2 melanoma),TGI (U251 CNS)
CCOC(=O)C(N)CSC(=O)NC (stereo not given),201 µM,594 µM,510 µM,461 µM,360 µM,312 µM,341 µM,782 µM,275 µM,306 µM,681 µM,397 µM,472 µM,314 µM,337 µM,443 µM,231 µM,276 µM,347 µM
Cc1ccc2nc(-c3ccc(N)c(I)c3)sc2c1,32.7 µM,56 µM,> 100 µM,> 100 µM,30.9 µM,23.2 µM,71.5 µM,> 100 µM,> 100 µM,> 100 µM,40.6 µM,> 100 µM,39.2 µM,> 100 µM,> 100 µM,88.7 µM,68.3 µM,40.8 µM,98.6 µM
N#Cc1sc2nc(/C=C3/C=CC=CC3=O)c(O)n2c1N,> 100 µM,> 100 µM,> 100 µM,> 100 µM,> 100 µM,> 100 µM,> 100 µM,> 100 µM,> 100 µM,> 100 µM,> 100 µM,,> 100 µM,> 100 µM,> 100 µM,> 100 µM,60 µM,> 100 µM,> 100 µM
COc1ccc(CCNC2=CC(=O)c3ncccc3C2=O)cc1OC,21.2 µM,3.39 µM,19.8 µM,12.2 µM,3.23 µM,5.09 µM,35.8 µM,5.32 µM,2.69 µM,2.03 µM,3.19 µM,1.75 µM,8.36 µM,17.2 µM,15.2 µM,34.9 µM,4.73 µM,6.73 µM,14 µM
NC(CCC(=O)NC(CSC(=O)N(O)c1ccc(Br)cc1)C(=O)NCC(=O)O)C(=O)O (stereo not given),> 100 µM,> 100 µM,> 100 µM,> 100 µM,> 100 µM,> 100 µM,> 100 µM,> 50 µM,> 100 µM,> 100 µM,> 100 µM,> 100 µM,> 100 µM,> 100 µM,> 100 µM,> 100 µM,> 100 µM,> 100 µM,> 100 µM
CCN(CC)c1ccc2cc(-c3nnc(-c4ccccc4)o3)c(=O)oc2c1,> 82.1 µM,> 100 µM,> 100 µM,> 100 µM,> 100 µM,> 100 µM,> 100 µM,> 100 µM,> 100 µM,> 100 µM,> 70.7 µM,> 51.3 µM,> 100 µM,98.4 µM,> 52.5 µM,> 100 µM,> 37.5 µM,> 87.2 µM,> 100 µM
N#CC(NNC(=O)Cc1ccccc1)c1ccccc1O (stereo not given),72.5 µM,> 80.3 µM,43.8 µM,> 89.9 µM,> 100 µM,> 100 µM,> 92.1 µM,> 100 µM,24.2 µM,73.4 µM,68 µM,> 100 µM,> 41.1 µM,99.2 µM,> 100 µM,98.7 µM,85.1 µM,> 100 µM,> 92 µM
CCOC(=O)CC1c2ccc(O)cc2OC(=O)C1c1ccc([N+](=O)[O-])cc1 (stereo not given),> 100 µM,89.1 µM,71.7 µM,94.5 µM,33 µM,> 100 µM,63.2 µM,> 100 µM,43.8 µM,70.3 µM,58.4 µM,> 100 µM,66.5 µM,75.7 µM,64.4 µM,> 100 µM,> 100 µM,40.1 µM,> 100 µM
c1cc(-c2ncc(-c3ccc4c(c3)CCCO4)o2)ccn1,> 100 µM,59.6 µM,> 100 µM,> 100 µM,91.5 µM,69.7 µM,92.5 µM,> 100 µM,94.5 µM,50.8 µM,> 100 µM,,16.7 µM,94.9 µM,> 100 µM,86.3 µM,45.2 µM,37.6 µM,66.5 µM
O=C1NC(=O)C(c2c[nH]c3cc(Br)ccc23)=C1c1cn(C(c2ccccc2)(c2ccccc2)c2ccccc2)cn1,23.2 µM,37.2 µM,> 100 µM,97.4 µM,27.4 µM,37.6 µM,30.3 µM,> 100 µM,29.9 µM,56.8 µM,19.3 µM,31.4 µM,34 µM,36.5 µM,37.5 µM,33.1 µM,37.9 µM,25.8 µM,24.7 µM
Cc1cc(C)cc(C(=N)c2ccccc2Cc2cccc3ccccc23)c1,31.8 µM,87.3 µM,31.2 µM,72.9 µM,52.3 µM,32.2 µM,29 µM,21.7 µM,40.1 µM,33.4 µM,29.3 µM,29.5 µM,24.4 µM,34.1 µM,31.9 µM,34.9 µM,30 µM,> 100 µM,> 100 µM
CC1=C(C(N)=O)C(c2ccncc2)C(C#N)=C2SCC(=O)N12 (stereo not given),> 100 µM,> 100 µM,> 100 µM,> 100 µM,> 100 µM,> 100 µM,> 100 µM,> 100 µM,> 100 µM,> 100 µM,> 100 µM,> 100 µM,> 100 µM,> 100 µM,> 100 µM,> 100 µM,> 100 µM,> 100 µM,> 100 µM
CC1(C)OCC2OC3(c4nc(C#N)c(N)o4)OC(C)(C)OC3C2O1 (stereo not given),> 100 µM,> 100 µM,> 100 µM,> 100 µM,> 100 µM,> 100 µM,> 100 µM,> 100 µM,> 100 µM,> 100 µM,> 100 µM,> 100 µM,> 100 µM,> 100 µM,> 100 µM,> 100 µM,> 100 µM,> 100 µM,> 100 µM
